Reference: patent US11591352B2, “Method for treatment of senescence-related disorders” (SPRINGTIDE VENTURES S.R.O., priority 2016, dated 2023)
Read-outs that look alike come from different tables or passages of the source. Blank lines part the entries; values can stand above or below the compound they belong to.

How the values were obtained:
RPE (control) = assay: Viability (Annexin V/Hoechst) of non-senescent control cells; format: cell-based; conditions: 48 h
Description: (§1) We tested the effect of compound 8 on cultured senescent pancreatic cells. We used three pancreatic cell lines (PANC-1, PaTu and BxPC-3) exposed to 100 μM BrdU for 6 days to induce senescence. These senescent cells were treated with different doses of compound 8 for 48 h and their viability was assessed. […] RPE cells, as the most sensitive tested cells, were used as a control to establish the concentration at which compound 8 is not toxic for non-senescent cells.

[1] = test system: senescent retinal pigment epithelial cells (RPE) treated with BrdU
Description: (§3) The effect of compounds 7, 8, 10, 15 on primary senescent cells (retinal pigment epithelial cells (RPE) treated for 8 days with 100 μM 5-bromo-2-deoxyuridine (BrdU)) was tested.

[2] = test system: RPE cells (siNC / siANT2); assay: Viability of RPE cells after ANT2 downregulation by siRNA; format: cell-based
From the text: (§2) Adenin nucleotid translocase 2 (ANT2) is a protein important for translocation of ATP from cytoplasm to mitochondria unlike two other members of ANT family, ANT1 and ANT3, participating in classical transfer of ADP into mitochondria via complex V during mitochondrial respiration. ANT2 plays a key role in maintenance of mitochondrial potential and in preserving intact mitochondria, especially in tumour cells. […] All these experiments show a key role of ANT2 in compound 8 resistance.

[3] = test system: p16 and p21 mRNA in PDX (triple-negative breast tumour); assay: qRT PCR of senescence markers in patient-derived xenografts; format: in vivo, NOD scid gamma mice
Description: Importantly, we repeated this experiment using patient-derived xenografts (PDXs; triple-negative breast tumour) transplanted into NOD scid gamma mice and treated with compound 8 (0.375 mg of compound 8/mouse, twice per week for a period of 2-3 weeks).

[4] = test system: p16, p21 and PAI mRNA in 4T1 cell-derived tumours; assay: qRT PCR of senescent markers in 4T1 cell-derived tumours; format: in vivo, Balb-c mice
[5] = test system: RPE cells with inducible ANT2; assay: Viability of RPE cells transfected with inducible ANT2; format: cell-based
From the text: as §2

BxPC-3 (senescent) = assay: Viability (Annexin V/Hoechst) of senescent pancreatic cells; format: cell-based; conditions: 48 h
Description: as §1

PaTu (senescent) = assay: as above; format: cell-based; conditions: 48 h
Description: as §1

PANC-1 (senescent) = assay: as above; format: cell-based; conditions: 48 h
Description: as §1

[6] = test system: control retinal pigment epithelial cells (RPE); assay: Viability (annexin V/Hoechst) of control RPE cells; format: cell-based; conditions: for % of Annexin V-/Hoechst-cells: ctrl
Description: as §3

[7] = test system: senescent retinal pigment epithelial cells (RPE) treated with BrdU; assay: Viability (annexin V/Hoechst) of senescent RPE cells; conditions: for % of Annexin V-/Hoechst-cells: BrdU; for selectivity of cytotoxicity for senescent versus control cells (in words): senescent (BrdU) vs control RPE cells
Description: as §3

[8] = test system: p16, p21 and plasminogen activator inhibitor (PAI) mRNA; assay: qRT PCR of senescent markers in organs of young and old FVB mice; format: in vivo
[9] = test system: p16, p21 and PAI mRNA in FVB/cneu spontaneous tumours; assay: qRT PCR of senescent markers in spontaneous tumours; format: in vivo, FVB mice
[10] = test system: B-gal positive (senescent) cells in lungs; assay: B-gal staining of lungs of young and naturally old FVB mice treated with compound 8; format: in vivo; conditions: for % of B-gal positive cells: 1 μg/g every week for 4 weeks
Description: We first analyzed the presence of senescent cells (using B-galactosidase (B-gal) staining) in organs in these two groups. From all tested organs (lungs, brain, white adipose tissue and stomach), we detected the biggest difference in presence of B-gal-positive cells in lungs (not shown). In the next step we treated the mice (6×19 month old mice+6×2 month old mice) with 1 dose of compound 8 (1 μg of compound 8/1 g mouse) every week for a period of 4 weeks. Mice (5×19 month old mice+6×2 month old mice) treated only with a corn oil without compound 8 were used as a control. After 4 weeks we removed lungs and detected percentage of B-gal positive cells in the tissues.

RPE cells = assay: Lactate production in RPE cells; format: cell-based
From the text: as §2

[11] = PDX tumors, treated, 0.375 mg/mouse twice per week for 2-3 weeks
[12] = BALBe/4T1 tumors, treated, 0.2 mg/mouse twice per week for 2-3 weeks
[13] = FVB/cneu tumors, treated, 0.2 mg/mouse twice per week for 2-3 weeks

Lactate production (fold induction) (RPE cells; RPE BrdU (senescent) treated): 8.2 fold induction | Lactate production (fold induction) (RPE cells; RPE ctrl treated): 1.6 fold induction
Structure (SMILES): CN(C)CCOc1ccc(/C(=C(/CCCCCCCCCC[P+](c2ccccc2)(c2ccccc2)c2ccccc2)c2ccccc2)c2ccccc2)cc1.[Br-] [compound 8]
% of AnnexinV-/Hoechst-cells (RPE (control); 0.1 μM): 98.9 (+/− 0.14) % | % of AnnexinV-/Hoechst-cells (RPE (control); 0.5 μM): 98.8 (+/− 0.21) % | % of AnnexinV-/Hoechst-cells (RPE (control); 1 μM): 98.3 (+/− 0.14) % | % of AnnexinV-/Hoechst-cells (RPE (control); 2.5 μM): 99.1 (+/− 0.35) % | selectivity of cytotoxicity for senescent versus control cells (in words) [1]: selectively more cytotoxic to senescent cells | % of AnnexinV-/Hoechst-cells ([2]; RPE siANT2 treated): 20.7% | % of AnnexinV-/Hoechst-cells ([2]; RPE siNC treated): 90.5% | death of control cells with downregulated ANT2 after treatment (in words) ([2]; RPE, ANT2 siRNA): increased death of these cells | increase of senescence markers (in words) ([3]; PDX in NOD scid gamma mice, 0.375 mg/mouse twice per week, 2-3 weeks): no increase | p2l mRNA fold change [3, 11]: 0.72 (+/− 0.84) fold change | p16 mRNA fold change [3, 11]: 1.34 (+/− 1.25) fold change | PAI mRNA fold change [4, 12]: 0.59 (+/− 0.22) fold change | p16 mRNA fold change [4, 12]: 0.20 (+/− 0.08) fold change | p21 mRNA fold change [4, 12]: 0.77 (+/− 0.18) fold change | increase of senescent markers p16, p21 and PAI on the mRNA level (in words) ([4]; Balb-c mice with 4T1 tumours, 0.2 mg/mouse twice per week, 2-3 weeks): did not observe any increase | resistance of senescent cells with induced ANT2 towards treatment (in words) ([5]; RPE BrdU + ANT2): increased resistance | % of AnnexinV-/Hoechst-cells ([5]; RPE BrdU + ANT2 treated): 53.8% | % of AnnexinV-/Hoechst-cells ([5]; RPE BrdU treated): 6.8% | % of AnnexinV-/Hoechst-cells ([5]; RPE ctrl + ANT2 treated): 95.2% | % of AnnexinV-/Hoechst-cells ([5]; RPE ctrl treated): 95.0% | % of AnnexinV-/Hoechst-cells (BxPC-3 (senescent); 0.1 μM): 47.7 (+/− 0.49) % | % of AnnexinV-/Hoechst-cells (BxPC-3 (senescent); 0.5 μM): 35.9 (+/− 6.22) % | % of AnnexinV-/Hoechst-cells (BxPC-3 (senescent); 1 μM): 4.8 (+/− 0.83) % | % of AnnexinV-/Hoechst-cells (BxPC-3 (senescent); 2.5 μM): 3.9 (+/− 1.69) % | % of AnnexinV-/Hoechst-cells (PaTu (senescent); 0.1 μM): 24.7 (+/− 3.25) % | % of AnnexinV-/Hoechst-cells (PaTu (senescent); 0.5 μM): 10.3 (+/− 0.97) % | % of AnnexinV-/Hoechst-cells (PaTu (senescent); 1 μM): 3.6 (+/− 3.24) % | % of AnnexinV-/Hoechst-cells (PaTu (senescent); 2.5 μM): 2.4 (+/− 1.21) % | % of AnnexinV-/Hoechst-cells (PANC-1 (senescent); 0.1 μM): 92.3 (+/− 0.78) % | % of AnnexinV-/Hoechst-cells (PANC-1 (senescent); 0.5 μM): 92.7 (+/− 1.27) % | % of AnnexinV-/Hoechst-cells (PANC-1 (senescent); 1 μM): 5.0 (+/− 1.97) % | % of AnnexinV-/Hoechst-cells (PANC-1 (senescent); 2.5 μM): 3.1 (+/− 0.68) % | effect on control cells (in words) ([6]; control RPE): without any effect on control cells | % of Annexin V-/Hoechst-cells ([6]; 1 μM): 93.0% | % of Annexin V-/Hoechst-cells ([6]; 2.5 μM): 90.3% | % of Annexin V-/Hoechst-cells ([6]; 5 μM): 3.1% | % of Annexin V-/Hoechst-cells ([7]; 1 μM): 67.0% | % of Annexin V-/Hoechst-cells ([7]; 2.5 μM): 13.9% | % of Annexin V-/Hoechst-cells ([7]; 5 μM): 0.8% | effect on elimination of senescent cells (in words) ([7]; RPE, 100 μM BrdU for 8 days): specific effect on elimination of senescent cells | PAI mRNA fold change ([8]; kidney, 2 m treated): 0.47 (+/− 0.09) fold change | p16 mRNA fold change ([8]; kidney, 2 m treated): 0.02 (+/− 0.01) fold change | p21 mRNA fold change ([8]; kidney, 2 m treated): 0.25 (+/− 0.05) fold change | PAI mRNA fold change ([8]; kidney, 19 m treated): 0.79 (+/− 0.17) fold change | p16 mRNA fold change ([8]; kidney, 19 m treated): 0.79 (+/− 0.31) fold change | p21 mRNA fold change ([8]; kidney, 19 m treated): 0.34 (+/− 0.11) fold change | PAI mRNA fold change ([8]; lungs, 2 m treated): 0.69 (+/− 0.12) fold change | p16 mRNA fold change ([8]; lungs, 2 m treated): 0.63 (+/− 0.07) fold change | p21 mRNA fold change ([8]; lungs, 2 m treated): 0.30 (+/− 0.06) fold change | PAI mRNA fold change ([8]; lungs, 19 m treated): 0.93 (+/− 0.22) fold change | p16 mRNA fold change ([8]; lungs, 19 m treated): 0.74 (+/− 0.12) fold change | p21 mRNA fold change ([8]; lungs, 19 m treated): 0.39 (+/− 0.03) fold change | level of senescent markers p16, p21, PAI mRNA after treatment (in words) ([8]; old mouse tissue): decreased almost to control levels | increase of senescent markers p16, p21 and PAI on the mRNA level (in words) ([9]; FVB mice with spontaneous tumours, 0.2 mg/mouse twice per week, 2-3 weeks): did not observe any increase | PAI mRNA fold change [9, 13]: 1.93 (+/− 1.19) fold change | p16 mRNA fold change [9, 13]: 0.39 (+/− 0.24) fold change | p21 mRNA fold change [9, 13]: 1.94 (+/− 1.43) fold change | % of B-gal positive cells ([10]; 2 month old mice): 0.3% | % of B-gal positive cells ([10]; 19 month old mice): 0.7% | number of B-gal-positive cells after treatment (in words) ([10]; old mice): decrease of their number

Structure (SMILES): CN(C)CCOc1ccc(/C(=C(/CCCCCCCCCCBr)c2ccccc2)c2ccccc2)cc1 [compound 7]
% of Annexin V-/Hoechst-cells ([6]; 0.05 μM): 94.6% | % of Annexin V-/Hoechst-cells ([6]; 0.1 μM): 95.1% | % of Annexin V-/Hoechst-cells ([6]; 0.5 μM): 91.4% | % of Annexin V-/Hoechst-cells ([7]; 0.05 μM): 80.5% | % of Annexin V-/Hoechst-cells ([7]; 0.1 μM): 78.3% | % of Annexin V-/Hoechst-cells ([7]; 0.5 μM): 55.3% | selectivity of cytotoxicity for senescent versus control cells (in words) [7]: selectively more cytotoxic to senescent cells

Structure (SMILES): CC/C(=C(\c1ccccc1)c1ccc(OCCN(C)C)cc1)c1ccccc1 [Tamoxifen]
% of Annexin V-/Hoechst-cells ([6]; 1 μM): 97.0% | % of Annexin V-/Hoechst-cells ([6]; 2.5 μM): 96.7% | % of Annexin V-/Hoechst-cells ([6]; 5 μM): 94.7% | % of Annexin V-/Hoechst-cells ([6]; 10 μM): 55.8% | % of Annexin V-/Hoechst-cells ([6]; 20 μM): 2.15% | decrease of viability (in words) ([7]; 10 μM, both senescent and control cells): by about half | cytotoxicity (in words) ([7]; 20 μM, both senescent and control cells): highly cytotoxic | % of Annexin V-/Hoechst-cells ([7]; 1 μM): 73.8% | % of Annexin V-/Hoechst-cells ([7]; 2.5 μM): 73.0% | % of Annexin V-/Hoechst-cells ([7]; 5 μM): 70.1% | % of Annexin V-/Hoechst-cells ([7]; 10 μM): 33.8% | % of Annexin V-/Hoechst-cells ([7]; 20 μM): 4.3% | selectivity of cytotoxicity for senescent versus control cells (in words) [7]: does not at any tested concentration have a significantly higher toxicity for senescent cells than for control cells | cytotoxicity (in words) ([7]; up to 5 μM, senescent and control cells): does not show cytotoxicity
